Patent publication US20230304010A1, “COMPOSITIONS AND METHODS FOR TREATING VIRAL INFECTIONS” (priority 2020, published 2023)
Ends that are not written are not given here.

Experiments:
[1] = test system: ACE2 : SARS-CoV-2 Spike Alpha (B1.1.7/United Kingdom) variant; type: binding; settings: read-out: IC50, Alpha (B117)
[2] = test system: ACE2 : SARS-CoV-2 Spike Beta (B1.351/South Africa) variant; type: binding; settings: read-out: IC50, Beta (B1312)
[3] = test system: ACE2 : SARS-CoV-2 Spike Gamma (P1/Brazil) variant; type: binding
[4] = test system: ACE2 : SARS-CoV-2 Spike Delta (B1 617 2/India) variant; type: binding; settings: read-out: IC50, Delta (B1617)
[5] = test system: ACE2 : SARS-CoV-2 Spike Epsilon (B1429) variant; type: binding
[6] = test system: SARS-CoV-2 variants (Alpha/Beta/Delta); type: cell-based

**Q.** Which IC50 [1] does the source give for “Ac-KTFLDKFNHEAEDLFPGPKWSAFLKEQSTLAQMYG [Seq28]” here?
**A.** 24.6 ± 11 nM

**Q.** And the IC50 [2]?
**A.** 31.5 ± 5 nM

**Q.** What about the IC50 [3] of the same substance?
**A.** 41.7 ± 11 nM

**Q.** And the IC50 [4]?
**A.** 29.2 ± 11 nM

**Q.** What about the IC50 [5] of the same substance?
**A.** 28.8 ± 7 nM

**Q.** And the “fold stronger anti-SARS-CoV-2 activity than Remdesivir” value [6]?
**A.** 200 fold
